For 19 compounds, IC50 results are on record in patent US9718774B2, “Indole carboxamide derivatives as P2X7 receptor antagonist” (ACTELION PHARMACEUTICALS LTD, priority 2012, dated 2017).

What is called IC50 is the concentration that inhibits the measured activity by half.

The first test has as its target T1, human recombinant P2X7 receptor (Homo sapiens, UniProt Q99572).
T1 construct: expressed in transfected cells
T1 sequence (Q99572 1-595): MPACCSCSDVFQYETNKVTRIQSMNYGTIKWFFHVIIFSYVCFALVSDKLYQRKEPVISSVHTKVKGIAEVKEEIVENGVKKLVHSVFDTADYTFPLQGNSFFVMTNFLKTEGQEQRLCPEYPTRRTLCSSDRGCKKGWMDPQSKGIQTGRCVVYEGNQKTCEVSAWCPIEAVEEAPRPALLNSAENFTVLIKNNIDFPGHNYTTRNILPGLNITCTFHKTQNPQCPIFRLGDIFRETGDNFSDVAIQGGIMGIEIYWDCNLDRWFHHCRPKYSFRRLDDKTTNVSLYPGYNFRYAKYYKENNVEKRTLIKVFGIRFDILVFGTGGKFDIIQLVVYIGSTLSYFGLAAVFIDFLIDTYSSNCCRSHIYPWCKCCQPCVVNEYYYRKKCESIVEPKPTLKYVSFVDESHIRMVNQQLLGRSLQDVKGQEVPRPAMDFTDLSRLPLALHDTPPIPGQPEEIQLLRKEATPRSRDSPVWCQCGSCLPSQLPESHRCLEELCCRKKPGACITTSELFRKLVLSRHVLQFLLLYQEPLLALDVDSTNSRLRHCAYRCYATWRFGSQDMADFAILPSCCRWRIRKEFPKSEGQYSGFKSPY
The experiment in a line: YO-PRO assay: P2X7 receptor antagonistic activity in HEK cells stably expressing P2X7. Type of test: cell-based. The conditions noted are these: IC50, antagonistic activity with respect to the P2X7 receptor. The method, boiled down:
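HEK cells stably transfected with human P2X7 (cloned from blood cDNA) were loaded with 0.5 μM YO-PRO-1. They were exposed to antagonist (10 concentrations, top 10 μM, 1/3 steps, duplicate) together with 250 μM ATP for 90 min, and dye uptake was read by FLIPR at ex 485/em 530. IC50 from maximum fluorescence versus concentration.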
On to `Cc1ncc(C(CNC(=O)c2ccc3[nH]ccc3c2Cl)N2CC3CC(C2)O3)cn1` (stereo not shown) [Example 95, 4-Chloro-1H-indole-5-carboxylic acid [2-(2-methyl-pyrimidin-5-yl)-2-(6-oxa-3-aza-bicyclo[3.1.1]hept-3-yl)-ethyl]-amide], for which the IC50 came to 0.028 µM.

Still in this test, the particulars now being: antagonistic activity with respect to the P2X7 receptor, read-out: IC50.
With `Cc1ncc(C(CNC(=O)c2cc(OCCO)c3[nH]ccc3c2Cl)N2CCOCC2)cn1` (racemic) [Example 113, rac-4-Chloro-7-(2-hydroxy-ethoxy)-1H-indole-5-carboxylic acid [2-(2-methyl-pyrimidin-5-yl)-2-morpholin-4-yl-ethyl]-amide], the IC50 stood at 0.021 µM.

In the case of `Cc1ncc(C(CNC(=O)c2cc(C(C)(C)O)c3[nH]ccc3c2Cl)N2CCOCC2)cn1` (racemic) [Example 116, rac-4-Chloro-7-(1-hydroxy-1-methyl-ethyl)-1H-indole-5-carboxylic acid [2-(2-methyl-pyrimidin-5-yl)-2-morpholin-4-yl-ethyl]-amide], the IC50 amounted to 0.149 µM.

On to `Cc1ncc(C(CNC(=O)c2cc(F)c3[nH]ccc3c2F)N2CCOCC2)cn1` (racemic) [Example 117, rac-4,7-Difluoro-1H-indole-5-carboxylic acid [2-(2-methyl-pyrimidin-5-yl)-2-morpholin-4-yl-ethyl]-amide], for which the IC50 amounted to 0.118 µM.

Regarding `COc1cc(C(=O)NCC(c2cnc(C)nc2)N2CCOCC2)c(F)c2cc[nH]c12` (racemic) [Example 118, rac-4-Fluoro-7-methoxy-1H-indole-5-carboxylic acid [2-(2-methyl-pyrimidin-5-yl)-2-morpholin-4-yl-ethyl]-amide], the IC50 is 0.02 µM.

Take `Cc1ncc(C(CNC(=O)c2ccc3[nH]ccc3c2Cl)N2CCOCC2)cn1` (single isomer, unassigned) [Example 3, 4-Chloro-1H-indole-5-carboxylic acid [2-(2-methyl-pyrimidin-5-yl)-2-morpholin-4-yl-ethyl]-amide]: the IC50 was found to be 0.0079 µM.

Take `Cc1ncc(C(CNC(=O)c2ccc3[nH]ccc3c2Cl)N2CCOCC2)cn1` (single isomer, unassigned) [Example 4, 4-Chloro-1H-indole-5-carboxylic acid [2-(2-methyl-pyrimidin-5-yl)-2-morpholin-4-yl-ethyl]-amide]: the IC50 turned out to be 0.0094 µM.

Take `Cc1ncc(C(CNC(=O)c2ccc3[nH]ccc3c2Cl)N2CCC(F)(F)CC2)cn1` (single isomer, unassigned) [Example 5, 4-Chloro-1H-indole-5-carboxylic acid [2-(4,4-difluoro-piperidin-1-yl)-2-(2-methyl-pyrimidin-5-yl)-ethyl]-amide]: the IC50 came to 0.0079 µM.

`Cc1ncc(C(CNC(=O)c2ccc3[nH]ccc3c2Cl)N2CCC(F)(F)CC2)cn1` (single isomer, unassigned) [Example 6, 4-Chloro-1H-indole-5-carboxylic acid [2-(4,4-difluoro-piperidin-1-yl)-2-(2-methyl-pyrimidin-5-yl)-ethyl]-amide]: the IC50 is 0.0068 µM.

Take `Cc1ncc(C(CNC(=O)c2ccc3[nH]ccc3c2Cl)N2CC(C)OC(C)C2)cn1` (single isomer, unassigned) [Example 41, 4-Chloro-1H-indole-5-carboxylic acid [2-(2,6-dimethyl-morpholin-4-yl)-2-(2-methyl-pyrimidin-5-yl)-ethyl]-amide]: the concentration for half-maximal inhibition (IC50) came to 0.651 µM.

Consider `Cc1ncc(C(CNC(=O)c2ccc3[nH]ccc3c2Cl)N2CC(C)OC(C)C2)cn1` (single isomer, unassigned) [Example 42, 4-Chloro-1H-indole-5-carboxylic acid [2-(2,6-dimethyl-morpholin-4-yl)-2-(2-methyl-pyrimidin-5-yl)-ethyl]-amide], for which the half-maximal inhibitory concentration (IC50) came out at 0.036 µM.

Regarding `Cc1ncc(C(CNC(=O)c2cc(C)c3[nH]ccc3c2Cl)N2CCOCC2)cn1` (single isomer, unassigned) [Example 96, 4-Chloro-7-methyl-1H-indole-5-carboxylic acid [2-(2-methyl-pyrimidin-5-yl)-2-morpholin-4-yl-ethyl]-amide], the concentration for half-maximal inhibition (IC50) worked out at 0.0096 µM.

In the case of `Cc1ncc(C(CNC(=O)c2cc(C)c3[nH]ccc3c2Cl)N2CCOCC2)cn1` (single isomer, unassigned) [Example 97, 4-Chloro-7-methyl-1H-indole-5-carboxylic acid [2-(2-methyl-pyrimidin-5-yl)-2-morpholin-4-yl-ethyl]-amide], the IC50 came to 0.01 µM.

On to `Cc1ncc(C(CNC(=O)c2ccc3[nH]ccc3c2C)N2CCOCC2)cn1` (single isomer, unassigned) [Example 105, 4-Methyl-1H-indole-5-carboxylic acid [2-(2-methyl-pyrimidin-5-yl)-2-morpholin-4-yl-ethyl]-amide], for which the IC50 stood at 0.02 µM.

For the compound `Cc1ncc(C(CNC(=O)c2ccc3[nH]ccc3c2C)N2CCOCC2)cn1` (single isomer, unassigned) [Example 106, 4-Methyl-1H-indole-5-carboxylic acid [2-(2-methyl-pyrimidin-5-yl)-2-morpholin-4-yl-ethyl]-amide], the IC50 was found to be 0.025 µM.

Consider `COc1cc(C(=O)NCC(c2cnc(C)nc2)N2CCOCC2)c(Cl)c2cc[nH]c12` (single isomer, unassigned) [Example 114, 4-Chloro-7-methoxy-1H-indole-5-carboxylic acid [2-(2-methyl-pyrimidin-5-yl)-2-morpholin-4-yl-ethyl]-amide], for which the IC50 worked out at 0.014 µM.

With `COc1cc(C(=O)NCC(c2cnc(C)nc2)N2CCOCC2)c(Cl)c2cc[nH]c12` (single isomer, unassigned) [Example 115, 4-Chloro-7-methoxy-1H-indole-5-carboxylic acid [2-(2-methyl-pyrimidin-5-yl)-2-morpholin-4-yl-ethyl]-amide], the IC50 was 0.0082 µM.

On to `CCc1cc(C(=O)NCC(c2cnc(C)nc2)N2CCOCC2)c(Cl)c2cc[nH]c12` (single isomer, unassigned) [Example 119, 4-Chloro-7-ethyl-1H-indole-5-carboxylic acid [2-(2-methyl-pyrimidin-5-yl)-2-morpholin-4-yl-ethyl]-amide], for which the IC50 is 0.016 µM.

Turning to `Cc1ncc(C(CNC(=O)c2ccc3[nH]ccc3c2Cl)N2CC3CC2CO3)cn1` (stereo not shown) [Example 68, 4-Chloro-1H-indole-5-carboxylic acid [2-(2-methyl-pyrimidin-5-yl)-2-(2-oxa-5-aza-bicyclo[2.2.1]hept-5-yl)-ethyl]-amide], the IC50 amounted to 2.06 µM.
